# Results: US9173882B2, “Polycyclic heteroaryl substituted triazoles useful as Axl inhibitors” (Rigel Pharmaceuticals, Inc., priority 2008, dated 2015)
# Molecular target: T1, Axl (Homo sapiens, UniProt P30530)
# T1 construct: endogenous in cells; host or cells: HeLa cells
# T1 sequence (P30530 26-894): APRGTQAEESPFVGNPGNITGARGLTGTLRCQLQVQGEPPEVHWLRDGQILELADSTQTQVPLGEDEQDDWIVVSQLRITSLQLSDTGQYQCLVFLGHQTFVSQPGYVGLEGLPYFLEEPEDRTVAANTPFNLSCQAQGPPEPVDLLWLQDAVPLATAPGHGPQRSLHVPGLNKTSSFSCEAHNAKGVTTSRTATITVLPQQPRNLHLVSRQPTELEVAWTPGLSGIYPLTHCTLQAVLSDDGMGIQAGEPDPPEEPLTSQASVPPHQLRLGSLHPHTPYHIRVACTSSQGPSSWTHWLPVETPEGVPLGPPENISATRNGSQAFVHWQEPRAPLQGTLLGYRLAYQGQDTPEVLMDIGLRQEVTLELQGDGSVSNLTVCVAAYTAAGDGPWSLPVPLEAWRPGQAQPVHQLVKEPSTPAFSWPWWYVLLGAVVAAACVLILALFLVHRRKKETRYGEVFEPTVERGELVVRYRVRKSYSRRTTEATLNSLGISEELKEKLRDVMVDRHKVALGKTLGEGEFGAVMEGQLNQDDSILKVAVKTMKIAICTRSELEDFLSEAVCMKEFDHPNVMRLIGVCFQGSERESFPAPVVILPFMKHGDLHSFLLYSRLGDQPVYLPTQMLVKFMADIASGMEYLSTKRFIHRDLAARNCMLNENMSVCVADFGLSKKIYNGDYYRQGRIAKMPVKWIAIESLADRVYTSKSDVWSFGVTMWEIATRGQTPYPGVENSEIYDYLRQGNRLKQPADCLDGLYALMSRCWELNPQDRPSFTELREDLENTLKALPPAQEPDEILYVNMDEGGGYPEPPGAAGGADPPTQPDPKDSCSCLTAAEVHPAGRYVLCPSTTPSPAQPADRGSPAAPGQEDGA
# Assay: Phospho-Akt in-cell Western assay
# Format: cell-based
# Settings: Hela cells, stimulated by Axl-antibody cross-linking, phospho-Akt chemiluminescence; Table 1, formula (Ia)
# Protocol: Phospho-Akt in-Cell Western Assay
# The compounds of the invention were tested in the following assay for their ability to inhibit Axl activity.
# • Cell culture plate: 96 well assay plate (Corning 3610), white, clear bottom, tissue-culture treated. • Cells: Hela cells. • Starvation medium: For Axl stimulation: 0.5% FCS (fetal calf serum) in DMEM, plus Axl/Fc (extracellular domain of AXL fused to imunoglobulin Fc region) (R&D, 154-AL) 500 ng/mL. • For EGF (epidermal growth factor) stimulation: 0.5% FCS in DMEM (Dulbecco's modified Eagles medium). • Poly-L-Lysine 0.01% solution (the working solution): 10 μg/ml, dilute In PBS (phosphate buffered saline). • Axl antibody cross-linking: • 1st: Mouse anti-Axl (R&D, MAB154). • 2nd: Biotin-SP-conjugated AffiniPure goat anti-mouse IgG (H+L) (Jackson ImmunoResearch #115-065-003). • Fixing buffer: 4% formaldehyde in PBS. • Wash buffer: 0.1% TritonX-100 in PBS. • Quenching buffer: 3% H2O2, 0.1% Azide in wash buffer, Azide and hydrogen peroxide (H2O2) are added fresh. • Blocking buffer: 5% BSA in TBST (tris buffered saline plus 0.1% Tween 20). • Primary antibody: Rabbit anti-human Phospho-Akt antibody (Cell Signaling 9271): 1×250 diluted in blocking buffer. • Secondary antibody: HRP (horse radish peroxidase)-conjugated Goat anti-Rabbit secondary, stock solution: Jackson ImmunoResearch (Goat anti-Rabbit HRP, #111-035-144) 1:1 diluted in glycerol, store at −20° C. The working solution: 1×2000 dilution of stock in blocking buffer. • Chemiluminescent working solution (Pierce, 37030): SuperSignal ELISA (enzyme linked immunosorbant assay) Pico Chemiluminescent substrate. • Crystal Violet solution: Stock: 2.5% Crystal violet in methanol, filtered and kept at ambient temperature. The working solution: dilute the stock 1:20 with PBS immediately before use. • 10% SDS: working solution: 5% SDS (sodium dodecylsulfate), diluted in PBS Methods: Day 1:
# A 96 well TC (tissue culture treated) plate was coated with 10 μg/mL poly-L-Lysine at 37° C. for 30 min, washed twice with PBS, and air-dried for 5 minutes before cells were added. Hela cells were seeded at 10,000 cells/well and the cells were starved in 100 μL starvation medium containing Axl/Fc for 24 hrs.
# The cells were pre-treated with test compounds by adding 100 μL of 2× test compound to the starvation medium on the cells. The cells were incubated at 37° C. for 1 hr before stimulation.
# The cells were stimulated by Axl-antibody cross-linking as follows: A 5× 1st/2nd Axl antibody mixture was made (37.5 μg/mL 1st/100 μg/mL 2nd) in starvation medium and nutated at 4° C. with thorough mixing for 1-2 hours for clustering. The resulting mix was warmed to 37° C. 50 μL of 5× Axl 1st/2nd of antibody cluster was added to the cells and the cells were incubated at 37° C. for 5 min.
# After 5 minutes stimulation, the plate was flicked to remove medium and the plate was tapped onto paper towels. Formaldehyde (4.0% in PBS, 100 μL) was added to fix the cells and the cells were incubated at ambient temperature for 20 min without shaking.
# The cells were washed with a plate washer buffer to remove the formaldehyde solution. The plate was flicked to removed excess wash buffer and tapped onto paper towels. Quenching buffer (100 μL) was added to each well and the cells were incubated at ambient temperature for 20 minutes without shaking.
# The cells were washed with a plate washer buffer to remove the quenching buffer. Blocking buffer (100 μL) was added and the cells were incubated at ambient temperature for at least an hour with gentle shaking.
# The cells were washed with a plate washer buffer and diluted primary antibody (50 μL) was added to each well (blocking buffer was added to the negative control wells instead). The plates were incubated overnight at 4° C. with gentle shaking.
# The wash buffer was removed, diluted secondary antibody (100 μL) was added, and the cells were incubated at ambient temperature for 1 hour with gentle shaking. […]
row,Compound,IC50
1,"Nc1nc(Nc2ccc3c(c2)CC[C@@H](N(CC2CC2)CC2CC2)CC3)nn1-c1cc2c(nn1)-c1ccccc1CCC2 [Compound 16, 1-(6,7-dihydro-5H-benzo[6,7]cyclohepta[1,2-c]pyridazin-3-yl)-N^3-((7s)-7-(di(cyclopropylmethyl)amino)-6,7,8,9-tetrahydro-5H-benzo[7]annulene-2-yl)-1H-1,2,4-triazole-3,5-diamine]",< 1000 nM
2,"CC(C)CN[C@H]1CCc2ccc(Nc3nc(N)n(-c4cc5c(nn4)-c4ccccc4CCC5)n3)cc2CC1 [Compound 17, 1-(6,7-dihydro-5H-benzo[6,7]cyclohepta[1,2-c]pyridazin-3-yl)-N^3-((7S)-7-((2-methylpropyl)amino)-6,7,8,9-tetrahydro-5H-benzo[7]annulene-2-yl)-1H-1,2,4-triazole-3,5-diamine]",< 1000 nM
3,"CCCN[C@H]1CCc2ccc(Nc3nc(N)n(-c4cc5c(nn4)-c4ccccc4CCC5)n3)cc2CC1 [Compound 18, 1-(6,7-dihydro-5H-benzo[6,7]cyclohepta[1,2-c]pyridazin-3-yl)-N^3-((7S)-7-((propyl)amino)-6,7,8,9-tetrahydro-5H-benzo[7]annulene-2-yl)-1H-1,2,4-triazole-3,5-diamine]",< 1000 nM
4,"CCN(CC)[C@H]1CCc2ccc(Nc3nc(N)n(-c4cc5c(nn4)-c4ccccc4CCC5)n3)cc2CC1 [Compound 20, 1-(6,7-dihydro-5H-benzo[6,7]cyclohepta[1,2-c]pyridazin-3-yl)-N^3-((7S)-7-(diethylamino)-6,7,8,9-tetrahydro-5H-benzo[7]annulene-2-yl)-1H-1,2,4-triazole-3,5-diamine]",< 1000 nM
5,"Nc1nc(Nc2ccc3c(c2)CC[C@@H](NC2CCCCC2)CC3)nn1-c1cc2c(nn1)-c1ccccc1CCC2 [Compound 21, 1-(6,7-dihydro-5H-benzo[6,7]cyclohepta[1,2-c]pyridazin-3-yl)-N^3-((7S)-7-(cyclohexylamino)-6,7,8,9-tetrahydro-5H-benzo[7]annulene-2-yl)-1H-1,2,4-triazole-3,5-diamine]",< 1000 nM
6,"Nc1nc(Nc2ccc3c(c2)CC[C@@H](NC2CCCC2)CC3)nn1-c1cc2c(nn1)-c1ccccc1CCC2 [Compound 22, 1-(6,7-dihydro-5H-benzo[6,7]cyclohepta[1,2-c]pyridazin-3-yl)-N^3-((7S)-7-(cyclopentylamino)-6,7,8,9-tetrahydro-5H-benzo[7]annulene-2-yl)-1H-1,2,4-triazole-3,5-diamine]",< 1000 nM
7,"Nc1nc(Nc2ccc3c(c2)CC[C@@H](NCC2CCCCC2)CC3)nn1-c1cc2c(nn1)-c1ccccc1CCC2 [Compound 26, 1-(6,7-dihydro-5H-benzo[6,7]cyclohepta[1,2-c]pyridazin-3-yl)-N^3-((7S)-7-((cyclohexylmethyl)amino)-6,7,8,9-tetrahydro-5H-benzo[7]annulene-2-yl)-1H-1,2,4-triazole-3,5-diamine]",< 1000 nM
8,"Nc1nc(Nc2ccc3c(c2)CC[C@@H](N(CC2CCCCC2)CC2CCCCC2)CC3)nn1-c1cc2c(nn1)-c1ccccc1CCC2 [Compound 27, 1-(6,7-dihydro-5H-benzo[6,7]cyclohepta[1,2-c]pyridazin-3-yl)-N^3-((7S)-7-(di(cyclohexylmethyl)amino)-6,7,8,9-tetrahydro-5H-benzo[7]annulene-2-yl)-1H-1,2,4-triazole-3,5-diamine]",10000 to 20000 nM
9,"CN(C)[C@H]1CCc2ccc(Nc3nc(N)n(-c4cc5c(nn4)-c4ccccc4CCC5)n3)cc2CC1 [Compound 31, 1-(6,7-dihydro-5H-benzo[6,7]cyclohepta[1,2-c]pyridazin-3-yl)-N^3-((7S)-7-(dimethylamino)-6,7,8,9-tetrahydro-5H-benzo[7]annulene-2-yl)-1H-1,2,4-triazole-3,5-diamine]",< 1000 nM

# Further lines, results first:
row,IC50,Compound
1,< 1000 nM,"CCCN(CCC)[C@H]1CCc2ccc(Nc3nc(N)n(-c4cc5c(nn4)-c4ccccc4CCC5)n3)cc2CC1 [Compound 19, 1-(6,7-dihydro-5H-benzo[6,7]cyclohepta[1,2-c]pyridazin-3-yl)-N^3-((7S)-7-(dipropylamino)-6,7,8,9-tetrahydro-5H-benzo[7]annulene-2-yl)-1H-1,2,4-triazole-3,5-diamine]"
2,< 1000 nM,"CC(C)N[C@H]1CCc2ccc(Nc3nc(N)n(-c4cc5c(nn4)-c4ccccc4CCC5)n3)cc2CC1 [Compound 24, 1-(6,7-dihydro-5H-benzo[6,7]cyclohepta[1,2-c]pyridazin-3-yl)-N^3-((7S)-7-(2-propylamino)-6,7,8,9-tetrahydro-5H-benzo[7]annulene-2-yl)-1H-1,2,4-triazole-3,5-diamine]"
3,1000 to 10000 nM,"CC(N[C@H]1CCc2ccc(Nc3nc(N)n(-c4cc5c(nn4)-c4ccccc4CCC5)n3)cc2CC1)C(C)(C)C (stereo partly drawn) [Compound 25, 1-(6,7-dihydro-5H-benzo[6,7]cyclohepta[1,2-c]pyridazin-3-yl)-N^3-((7S)-7-((3,3-dimethylbut-2-yl)amino)-6,7,8,9-tetrahydro-5H-benzo[7]annulene-2-yl)-1H-1,2,4-triazole-3,5-diamine]"
4,1000 to 10000 nM,"Nc1nc(Nc2ccc3c(c2)CC[C@@H](NCc2ccccc2C(=O)O)CC3)nn1-c1cc2c(nn1)-c1ccccc1CCC2 [Compound 29, 1-(6,7-dihydro-5H-benzo[6,7]cyclohepta[1,2-c]pyridazin-3-yl)-N^3-((7S)-7-((2-carboxyphenyl)methyl)amino-6,7,8,9-tetrahydro-5H-benzo[7]annulene-2-yl)-1H-1,2,4-triazole-3,5-diamine]"
5,1000 to 10000 nM,"Nc1nc(Nc2ccc3c(c2)CC[C@@H](NCc2cccc(Br)c2)CC3)nn1-c1cc2c(nn1)-c1ccccc1CCC2 [Compound 30, 1-(6,7-dihydro-5H-benzo[6,7]cyclohepta[1,2-c]pyridazin-3-yl)-N^3-((7S)-7-((3-bromophenyl)methyl)amino-6,7,8,9-tetrahydro-5H-benzo[7]annulene-2-yl)-1H-1,2,4-triazole-3,5-diamine]"
6,< 1000 nM,"Nc1nc(Nc2ccc3c(c2)CC[C@@H](NC2CCC2)CC3)nn1-c1cc2c(nn1)-c1ccccc1CCC2 [Compound 32, 1-(6,7-dihydro-5H-benzo[6,7]cyclohepta[1,2-c]pyridazin-3-yl)-N^3-((7S)-7-(cyclobutylamino)-6,7,8,9-tetrahydro-5H-benzo[7]annulene-2-yl)-1H-1,2,4-triazole-3,5-diamine]"
